{
  "source": "patent US20100029604A1",
  "about": "“ANTIBACTERIAL COMBINATION AND ITS USE” (priority 2007, published 2010)",
  "key": {"Klebsiella oxytoca LXA-1": {"test_system": "Klebsiella oxytoca LXA-1", "experiment": "MIC, characterised β-lactamase producing strain (Example 5, Tables 5-7)", "format": "cell-based", "details": "Klebsiella oxytoca LXA-1, functional group 2b; LK-157 in combination constant 4 μg/mL"}, "C. freundii SHV-5 [1]": {"test_system": "C. freundii SHV-5", "experiment": "Synergy MIC, inhibitor at 4 μg/mL (Example 4)", "format": "cell-based", "details": "SHV-5, class A, inhibitor constant 4 μg/mL"}, "Escherichia coli TEM-30": {"test_system": "Escherichia coli TEM-30", "experiment": "MIC, characterised β-lactamase producing strain (Example 5, Tables 5-7)", "format": "cell-based", "details": "Table 6, LK-157 at constant 4 μg/mL in combination"}, "E. coli TEM-3": {"test_system": "E. coli TEM-3", "format": "cell-based", "details": "β-lactamase TEM-3 (Table 3 r16), inhibitor constant 4 μg/mL", "protocol": "(§1) Stock solutions of the test compounds and control antibiotics were prepared in distilled water according to the NCCLS guidelines [Methods for dilution antimicrobial tests for bacteria that grow aerobically. NCCLS document M7-A5; 2000; vol. 19. National Committee for Clinical Laboratory Standards, Villanova, Pa.]. All drug weights were corrected for salt forms and refer to the pure drug substance.\n(§2) All tested strains and Clinical isolates were either purchased from the American Type Culture Collection (ATCC), or from the in-house company culture collection.\n(§3) Stock cultures were prepared from broth cultures grown at 35° C. for 18-22 h without agitation and subsequent addition of 5% DMSO (v/v, final concentration) as cryoprotectant and stored frozen in liquid nitrogen. Mueller-Hinton II broth (MHBII) (BBL Cockeysville, Md.) was used for the testing procedure.\n(§4) The in vitro activities of the antibiotics were determined by the broth microdilution method and agar dilution technique as recommended by CLSI guidelines. The MIC experiments were performed in duplicate in 96-well microtiter plates using MHB. Serial twofold dilutions of each antibiotic either alone or in combination with a constant amount (4 μg/mL) of a β-lactamase inhibitor were prepared in MHBII broth. A sterile pipette tip was used to mix the contents of each well (one tip was used going from the low to the high concentration in the same column). The bacterial suspension with final inoculum 10^5 CFU/mL was transferred to the test medium containing the antibacterial substances by a multipoint inoculator (Dynatech, Chantilly, Va., USA). The plates were then incubated at 35° C. for 24 h.\n(§5) Representative compound of Formula (I) was evaluated against the serine-based Class A β-lactamases including TEM-type, SHV-type extended spectrum β-lactamases (ESBL) and various non-ESBL enzymes of enterobacteriaceae as well as BRO-type enzymes of Moraxella catarrhalis and penicillinases of Staphylococcus aureus."}, "Escherichia coli CTX-M9": {"test_system": "Escherichia coli CTX-M9", "experiment": "MIC, characterised β-lactamase producing strain (Example 5, Table 7)", "format": "cell-based", "details": "CTXM9, combination at constant concentration ratio (2:1)", "source_text": "Their MICs were compared with that of cefotaxime, cefotaxime/tazobactam, ceftazidime, ceftazidime/tazobactam, cefepime, cefepime/tazobactam, and piperacillin/tazobactam."}, "M. catarrhalis BRO-2": {"test_system": "M. catarrhalis BRO-2", "experiment": "Synergy MIC, inhibitor at 4 μg/mL (Example 3)", "format": "cell-based, Moraxella catarrhalis", "details": "β-lactamase BRO-2 (Table 3 r18), inhibitor constant 4 μg/mL", "protocol": "as §1, §2, §3, §4, §5"}, "M. catarrhalis BRO-1": {"test_system": "M. catarrhalis BRO-1", "experiment": "Synergy MIC, inhibitor at 4 μg/mL (Example 3)", "format": "cell-based, Moraxella catarrhalis", "details": "M. catarrhalis, β-lactamase BRO-1 (Table 3 r17); inhibitor constant 4 μg/mL", "protocol": "as §1, §2, §3, §4, §5"}, "S. aureus PC": {"test_system": "S. aureus PC", "experiment": "Synergy MIC, inhibitor at 4 μg/mL (Example 3)", "format": "cell-based, Staphylococcus aureus", "details": "S. aureus, β-lactamase PC, inhibitor constant 4 μg/mL", "protocol": "as §1, §2, §3, §4, §5"}, "C. freundii ESBL": {"test_system": "C. freundii ESBL", "experiment": "Synergy MIC, inhibitor at 4 μg/mL (Example 3)", "format": "cell-based", "details": "ESBL (Table 3 r25), inhibitor constant 4 μg/mL", "protocol": "as §1, §2, §3, §4, §5"}, "C. freundii SHV-5 [2]": {"test_system": "C. freundii SHV-5", "experiment": "Synergy MIC, inhibitor at 4 μg/mL (Example 3)", "format": "cell-based", "details": "β-lactamase SHV-5 (Table 3 r10), inhibitor constant 4 μg/mL", "protocol": "as §1, §2, §3, §4, §5"}, "K. pneumoniae SHV": {"test_system": "K. pneumoniae SHV", "experiment": "Synergy MIC, inhibitor at 4 μg/mL (Example 3)", "format": "cell-based", "details": "β-lactamase SHV, inhibitor constant 4 μg/mL", "protocol": "as §1, §2, §3, §4, §5"}, "E. cloacae SHV-12": {"test_system": "E. cloacae SHV-12", "experiment": "Synergy MIC, inhibitor at 4 μg/mL (Example 3)", "format": "cell-based", "details": "β-lactamase SHV-12 (Table 3 r11), inhibitor constant 4 μg/mL", "protocol": "as §1, §2, §3, §4, §5"}, "E. coli SHV-3": {"test_system": "E. coli SHV-3", "experiment": "Synergy MIC, inhibitor at 4 μg/mL (Example 3)", "format": "cell-based", "details": "β-lactamase SHV-3 (Table 3 r9), inhibitor constant 4 μg/mL", "protocol": "as §1, §2, §3, §4, §5"}, "K. oxytoca ESBL": {"test_system": "K. oxytoca ESBL", "experiment": "Synergy MIC, inhibitor at 4 μg/mL (Example 3)", "format": "cell-based", "details": "ESBL (Table 3 r26), inhibitor constant 4 μg/mL", "protocol": "as §1, §2, §3, §4, §5"}, "E. coli ESBL": {"test_system": "E. coli ESBL", "experiment": "Synergy MIC, inhibitor at 4 μg/mL (Example 3)", "format": "cell-based", "details": "inhibitor constant 4 μg/mL", "protocol": "as §1, §2, §3, §4, §5"}},
  "data": [
    {"compound": "CO/N=C(\\C(=O)N[C@@H]1C(=O)N2C(C(=O)[O-])=C(C[N+]3(C)CCCC3)CS[C@H]12)c1csc(N)n1", "note": "[cefepime]", "values": [
      {"measurement": "MIC", "setting": "Klebsiella oxytoca LXA-1", "result": 0.125, "unit": "µg/mL"}
    ]},
    {"compound": "CO/N=C(\\C(=O)N[C@@H]1C(=O)N2C(C(=O)O)=C(COC(C)=O)CS[C@H]12)c1csc(N)n1", "note": "[cefotaxime]", "values": [
      {"measurement": "MIC", "setting": "C. freundii SHV-5 [1]", "result": 25.6, "unit": "µg/mL"},
      {"measurement": "MIC", "setting": "Escherichia coli TEM-30", "result": 0.031, "unit": "µg/mL"}
    ]},
    {"compound": "CC(C)(O/N=C(\\C(=O)N[C@@H]1C(=O)N2C(C(=O)[O-])=C(C[n+]3ccccc3)CS[C@H]12)c1csc(N)n1)C(=O)O", "note": "[ceftazidime]", "values": [
      {"measurement": "MIC", "setting": "E. coli TEM-3", "result": "> 25.6", "unit": "µg/mL"},
      {"measurement": "MIC", "setting": "Escherichia coli CTX-M9", "result": 2, "unit": "µg/mL"},
      {"measurement": "MIC", "setting": "M. catarrhalis BRO-2", "result": 0.05, "unit": "µg/mL"},
      {"measurement": "MIC", "setting": "M. catarrhalis BRO-1", "result": 0.2, "unit": "µg/mL"},
      {"measurement": "MIC", "setting": "S. aureus PC; first listed (Table 3 r19)", "result": 12.8, "unit": "µg/mL"},
      {"measurement": "MIC", "setting": "S. aureus PC; second listed (Table 3 r20)", "result": 25.6, "unit": "µg/mL"},
      {"measurement": "MIC", "setting": "C. freundii ESBL", "result": "> 25.6", "unit": "µg/mL"},
      {"measurement": "MIC", "setting": "C. freundii SHV-5 [2]", "result": "> 25.6", "unit": "µg/mL"},
      {"measurement": "MIC", "setting": "K. pneumoniae SHV; first listed (Table 3 r12)", "result": "> 25.6", "unit": "µg/mL"},
      {"measurement": "MIC", "setting": "K. pneumoniae SHV; second listed (Table 3 r13)", "result": 12.8, "unit": "µg/mL"},
      {"measurement": "MIC", "setting": "E. cloacae SHV-12", "result": "> 25.6", "unit": "µg/mL"},
      {"measurement": "MIC", "setting": "E. coli SHV-3", "result": 1.6, "unit": "µg/mL"},
      {"measurement": "MIC", "setting": "K. oxytoca ESBL", "result": 0.4, "unit": "µg/mL"},
      {"measurement": "MIC", "setting": "E. coli ESBL; first listed (Table 3 r21)", "result": 1.6, "unit": "µg/mL"},
      {"measurement": "MIC", "setting": "E. coli ESBL; fourth listed (Table 3 r24)", "result": "> 25.6", "unit": "µg/mL"},
      {"measurement": "MIC", "setting": "E. coli ESBL; second listed (Table 3 r22)", "result": 0.4, "unit": "µg/mL"},
      {"measurement": "MIC", "setting": "E. coli ESBL; third listed (Table 3 r23)", "result": 0.2, "unit": "µg/mL"}
    ]}
  ]
}
